pIC50: −log10 of the molar value.
tested on: glucocorticoid receptor; test: One or more of the above assays (GR binding and GR cell assays; not specified which); type: cell-based; settings: in one or more of the above assays
Procedure: This assay uses fluorescence polarization (FP) to quantitate the ability of test compounds to compete with tetramethyl rhodamine (TAMRA)-labeled dexamethasone for binding to a human glucocorticoid receptor (GR) complex prepared from an insect expression system. The assay buffer was: 10 mM TES, 50 mM KCl, 20 mM Na2MoO4.2H2O, 1.5 mM EDTA, 0.04% w/v CHAPS, 10% v/v glycerol, 1 mM dithiothreitol, pH 7.4. Test compounds were dissolved to 1 mM in neat DMSO and then further diluted to 10×assay concentration in assay buffer supplemented with 10% v/v DMSO. Test compounds were serially diluted at 10×assay concentrations in 10% DMSO-containing buffer in 96-well polypropylene plates. […] Positive controls were reaction mixtures containing no test compound; negative controls (blanks) were reaction mixtures containing 0.7 μM to 2 μM dexamethasone. […] IC50 values were determined by iterative non-linear curve fitting of the FP signal data to a 4-parameter logistic equation.
B. Glucocorticoid Receptor Cell Assays
1. Induction of Aromatase in Fibroblasts (Cell Assay for Transactivation)
Dexamethasone, a synthetic ligand to the glucocorticoid receptor (GR), induces expression of aromatase in human foreskin fibroblast cells. The activity of aromatase is measured by the conversion of testosterone to estradiol in culture media.
On the day of the experiment, the media in the wells is replaced with fresh media. Cells are treated with test compounds to final concentrations of 10^−5 M to 10 ^−8 M, and testosterone to a final concentration of 300 ng/mL. Each well has a total volume of 100 μL. Samples are made in duplicates. Control wells include: (a) wells that receive testosterone only, and (b) wells that receive testosterone plus 2 μM of dexamethasone to provide maximum induction of aromatase. Plates are incubated at 37° C. overnight (15 to 18 hours), and supernatants are harvested at the end of incubation. […] The amount of estradiol is inversely proportional to the ELISA signals in each well. The extent of aromatase induction by test compounds is expressed as a relative percentage to dexamethasone. EC50 values of test compounds are derived by non-linear curve fitting.
2. Inhibition of IL-6 Production in Fibroblasts (Cell Assay for Transrepression)
Human foreskin fibroblast cells produce IL-6 in response to stimulation by pro-inflammatory cytokine IL-1.
On the next day, media in the wells is replaced with fresh media. Cells are treated with IL-1 (rhIL-1α, R&D Systems Cat. No. 200-LA) to a final concentration of 1 ng/mL, and with test compounds to final concentrations of 10 ^−5 M to 10 ^−8 M, in a total volume of 200 μL per well. Samples are done in duplicates. […] Positive control wells receive IL-1 only and represent maximum (or 100%) amount of IL-6 production. Plates are incubated at 37° C. overnight (15 to 18 hours), and supernatants are harvested at the end of incubation. IL-6 levels in the supernatants are determined by the ELISA kits for IL-6 (MedSystems Diagnostics GmbH, Vienna, Austria, Cat. No. BMS213TEN) according to manufacture's instructions. The extent of inhibition of IL-6 by test compounds is expressed in percentage relative to positive controls. IC50 values of test compounds are derived by non-linear curve fitting.
Evaluation of agonist or antagonist activity of compounds binding to the glucocorticoid receptor may be determined by any of the assays.
3. Modulation of Tyrosine Aminotransferase (TAT) Induction in Rat Hepatoma Cells
Testing of compounds for agonist or antagonist activity in induction of tyrosine aminotransferase (TAT) in rat hepatoma cells.
H4-II-E-C3 cells were incubated overnight in 96 well plates (20,000 cells/100 μL/well) in MEM medium containing 10% heat inactivated FBS and 1% nonessential amino acids. On the next day, cells were stimulated with the indicated concentrations of dexamethasone or test compound (dissolved in DMSO, final DMSO concentration 0.2%) for 18 hours. Control cells were treated with 0.2% DMSO.

SMILES | activity as agonists of the glucocorticoid receptor function
Cc1cc2c(c(C(C)(C)CC(O)(Cc3ccc(C#N)cc3Cl)C(F)(F)F)c1)OCC2 (stereo not drawn) [3-Chloro-4-[2-hydroxy-4-methyl-4-(5-methyl-2,3-dihydrobenzofuran-7-yl)-2-trifluoromethylpentyl]benzonitrile] | activity as agonists
Cc1cccc(C(C)(C)CC(O)(Cc2ccc(C#N)cc2Cl)C(F)(F)F)c1 (stereo not drawn) [3-Chloro-4-(2-hydroxy-4-methyl-4-m-tolyl-2-trifluoromethylpentyl)benzonitrile] | activity as agonists
CC(C)(CC(O)(Cc1ccc(C#N)cc1Cl)C(F)(F)F)c1cccc(F)c1 (stereo not drawn) [3-Chloro-4-[4-(3-fluorophenyl)-2-hydroxy-4-methyl-2-trifluoromethylpentyl]benzonitrile] | activity as agonists
COc1cc(F)c(Br)cc1C(C)(C)CC(O)(Cc1ccc(C#N)cc1Cl)C(F)(F)F (stereo not drawn) [4-[4-(5-Bromo-4-fluoro-2-methoxyphenyl)-2-hydroxy-4-methyl-2-trifluoromethylpentyl]-3-chlorobenzonitrile] | activity as agonists
COc1ccc(F)cc1C(C)(C)CC(O)(Cc1cc(Cl)cc(Cl)c1Cl)C(F)(F)F (stereo not drawn) [1,1,1-Trifluoro-4-(5-fluoro-2-methoxyphenyl)-4-methyl-2-(2,3,5-trichlorobenzyl)pentan-2-ol] | activity as agonists
CC(C)(CC(O)(Cc1ccc(C#N)cc1Cl)C(F)(F)F)c1ccc2ccccc2c1 (stereo not drawn) [3-Chloro-4-(2-hydroxy-4-methyl-4-naphthalen-2-yl-2-trifluoromethylpentyl)benzonitrile] | activity as agonists
CC(C)(CC(O)(Cc1ccc(C#N)cc1Cl)C(F)(F)F)c1cc(O)cc(O)c1 (stereo not drawn) [3-Chloro-4-[4-(3,5-dihydroxyphenyl)-2-hydroxy-4-methyl-2-trifluoromethylpentyl]benzonitrile] | activity as agonists
Cc1ccc(F)cc1C(C)(C)CC(O)(Cc1ccc(C#N)cc1Cl)C(F)(F)F (stereo not drawn) [3-Chloro-4-[4-(5-fluoro-2-methylphenyl)-2-hydroxy-4-methyl-2-trifluoromethylpentyl]benzonitrile] | activity as agonists
COc1ccc(F)cc1C(C)(C)CC(O)(Cc1ccc(/C=N/O)cc1Cl)C(F)(F)F (stereo not drawn) [3-Chloro-4-[4-(5-fluoro-2-methoxyphenyl)-2-hydroxy-4-methyl-2-trifluoromethylpentyl]benzaldehyde oxime] | activity as agonists
COc1ccc(F)cc1C(C)(C)CC(O)(Cc1ccc(C#N)c2ccccc12)C(F)(F)F (stereo not drawn) [4-[4-(5-Fluoro-2-methoxyphenyl)-2-hydroxy-4-methyl-2-trifluoromethylpentyl]naphthalene-1-carbonitrile] | activity as agonists
N#Cc1ccc(CC(O)(CC2(c3cc(F)ccc3Cl)CCC2)C(F)(F)F)c(Cl)c1 (stereo not drawn) [3-Chloro-4-{2-[1-(2-chloro-5-fluorophenyl)cyclobutylmethyl]-3,3,3-trifluoro-2-hydroxypropyl}benzonitrile] | activity as agonists
CC(C)(CC(O)(Cc1ccc(C#N)cc1Cl)C(F)(F)F)c1ccc(F)cc1O (stereo not drawn) [3-Chloro-4-[4-(4-fluoro-2-hydroxyphenyl)-2-hydroxy-4-methyl-2-trifluoromethylpentyl]benzonitrile] | activity as agonists
CC(C)(CC(O)(Cc1cc(C(F)(F)F)cc(Cl)c1F)C(F)(F)F)c1cc([N+](=O)[O-])cc2c1OCC2 (stereo not drawn) [2-(3-Chloro-2-fluoro-5-trifluoromethylbenzyl)-1,1,1-trifluoro-4-methyl-4-(5-nitro-2,3-dihydrobenzofuran-7-yl)pentan-2-ol] | activity as agonists

molecular target: T1, human glucocorticoid receptor (GR) complex (Homo sapiens, UniProt P04150); test: Glucocorticoid receptor competitive binding assay (fluorescence polarization); settings: competition with TAMRA-labeled dexamethasone
T1 construct: made in house; host or cells: insect expression system (baculovirus lysate)
T1 sequence (P04150 1-777): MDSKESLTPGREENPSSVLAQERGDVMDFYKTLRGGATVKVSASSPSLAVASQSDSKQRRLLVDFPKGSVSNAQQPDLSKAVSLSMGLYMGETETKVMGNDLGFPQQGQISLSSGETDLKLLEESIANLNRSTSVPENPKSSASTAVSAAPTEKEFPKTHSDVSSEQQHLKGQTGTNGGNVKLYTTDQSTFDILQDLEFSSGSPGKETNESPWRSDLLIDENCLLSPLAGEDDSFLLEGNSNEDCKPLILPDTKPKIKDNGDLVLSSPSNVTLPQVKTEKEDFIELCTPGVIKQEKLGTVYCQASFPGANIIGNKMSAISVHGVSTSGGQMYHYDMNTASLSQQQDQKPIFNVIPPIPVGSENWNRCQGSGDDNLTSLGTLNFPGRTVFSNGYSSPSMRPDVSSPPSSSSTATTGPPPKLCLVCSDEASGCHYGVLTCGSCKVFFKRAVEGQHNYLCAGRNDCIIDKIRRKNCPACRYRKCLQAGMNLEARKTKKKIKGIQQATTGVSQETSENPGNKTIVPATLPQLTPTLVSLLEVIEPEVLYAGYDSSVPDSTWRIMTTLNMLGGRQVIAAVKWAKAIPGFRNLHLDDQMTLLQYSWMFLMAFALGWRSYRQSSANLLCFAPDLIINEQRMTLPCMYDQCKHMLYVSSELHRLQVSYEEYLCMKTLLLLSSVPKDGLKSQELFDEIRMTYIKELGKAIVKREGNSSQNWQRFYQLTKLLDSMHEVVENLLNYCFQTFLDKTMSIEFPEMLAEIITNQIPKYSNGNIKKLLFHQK
Procedure: Compounds of the invention were evaluated for binding to the steroid receptor by a fluorescence polarization competitive binding assay. Detailed descriptions for preparation of recombinant glucocorticoid receptor (GR) complex used in the assay is described in U.S. provisional application No. 60/291,877, filed May 18, 2001, and incorporated herein by reference in its entirety. Preparation of the tetramethyl rhodamine (TAMRA)-labeled dexamethasone probe was accomplished using a standard literature procedure (M. Pons et al., J. Steroid Biochem., 1985, 22, pp. 267-273).
A. Glucocorticoid Receptor Competitive Binding Assay
Step 1. Characterization of the Fluorescent Probe
The wavelengths for maximum excitation and emission of the fluorescent probe should first be measured. An example of such a probe is rhodamine (TAMRA)-labeled dexamethasone.
The affinity of the probe for the steroid receptor was then determined in a titration experiment. The fluorescence polarization value of the probe in assay buffer was measured on an SLM-8100 fluorometer using the excitation and emission maximum values described above. Aliquots of expression vector lysate were added and fluorescence polarization was measured after each addition until no further change in polarization value was observed. Non-linear least squares regression analysis was used to calculate the dissociation constant of the probe from the polarization values obtained for lysate binding to the probe.
Step 2. Screeningfor Inhibitors of Probe Binding
This assay uses fluorescence polarization (FP) to quantitate the ability of test compounds to compete with tetramethyl rhodamine (TAMRA)-labeled dexamethasone for binding to a human glucocorticoid receptor (GR) complex prepared from an insect expression system. The assay buffer was: 10 mM TES, 50 mM KCl, 20 mM Na2MoO4.2H2O, 1.5 mM EDTA, 0.04% w/v CHAPS, 10% v/v glycerol, 1 mM dithiothreitol, pH 7.4. Test compounds were dissolved to 1 mM in neat DMSO and then further diluted to 10×assay concentration in assay buffer supplemented with 10% v/v DMSO. Test compounds were serially diluted at 10×assay concentrations in 10% DMSO-containing buffer in 96-well polypropylene plates. Binding reaction mixtures were prepared in 96-well black Dynex microtiter plates by sequential addition of the following assay components to each well: […] of 10×test compound solution, 85 μL of GR-containing baculovirus lysate diluted 1:170 in assay buffer, and 50 μL of 15 nM TAMRA-labeled dexamethasone. Positive controls were reaction mixtures containing no test compound; negative controls (blanks) were reaction mixtures containing 0.7 μM to 2 μM dexamethasone. The binding reactions were incubated for 1 hour at room temperature and then read for fluorescence polarization in the LJL Analyst set to 550 nm excitation and 580 nm emission, with the Rhodamine 561 dichroic mirror installed. IC50 values were determined by iterative non-linear curve fitting of the FP signal data to a 4-parameter logistic equation.

pIC50 | SMILES
≥ 7.00 | CC(C)(CC(O)(Cc1ccc(-c2ccccc2)cc1)C(F)(F)F)c1cc(F)ccc1O (stereo not drawn) [2-(3-Biphenyl-4-ylmethyl-4,4,4-trifluoro-3-hydroxy-1,1-dimethylbutyl)-4-fluorophenol]
≥ 7.00 | Cc1cccc(CC(O)(CC(C)(C)c2cc(F)ccc2O)C(F)(F)F)c1 (stereo not drawn) [4-Fluoro-2-[4,4,4-trifluoro-3-hydroxy-1,1-dimethyl-3-(3-methylbenzyl)butyl]phenol]

Source: patent publication US7268152B2, “Glucocorticoid mimetics, methods of making them, pharmaceutical compositions, and uses thereof” (Boehringer Ingelheim Pharmaceuticals, Inc., priority 2002, dated 2007)
